Assay results: article PMC8287724, “Reducing Auditory Nerve Excitability by Acute Antagonism of Ca^2+-Permeable AMPA Receptors” (Frontiers in Synaptic Neuroscience, 2021)

Key:
H1 histamine GPCR = biological target: T1, H1 histamine GPCR (Homo sapiens, UniProt P35367); test: Radioligand binding assay, H1 receptor (transfected HEK-293 cells); settings: antagonist 1 μM
T1 construct: host or cells: HEK-293 cells
Method: (§1) Binding assays were conducted to evaluate the affinity of test compounds IEM-1460 and IEM-1925 (Eurofins Scientific, Inc.) for 15 targets: the human alpha-1 adrenergic (A1) receptor, histaminergic (H)-2 and−3 receptors, and muscarinic acetylcholine receptors-1 to−5 in transfected CHO cells by radioligand binding. The neuronal α4β2 and neuronal α7 cholinergic acetylcholine receptors were tested in transfected SH-SY5Y cells. The histaminergic-1 and−4 receptors were tested in transfected HEK-293 cells. Ion channel testing for AMPA and N-methyl-D-aspartate (NMDA) was performed in cells from the rat cerebral cortex. […] Non-specific binding was determined in the presence of 1 μM of DCPX. […] The filters were dried and then counted for radioactivity in a scintillation counter (Topcount, Packard) using a scintillation cocktail (Microscint 0, Packard). The results are expressed as a percent inhibition of the control radioligand specific binding: 100-[(measured specific binding)/(control specific binding) × 100]. […]
(§2) We tested the metabolic stability of the compounds with in vitro liver microsome stability assays (Table 1, right). […] We evaluated the compounds for potential toxicity with assays that test for inhibition of off-target ion channels and receptors. […]

H3 histamine GPCR = biological target: T2, H3 histamine GPCR (Homo sapiens, UniProt Q9Y5N1); test: Radioligand binding assay, H3 receptor (transfected CHO cells); settings: antagonist 1 μM
T2 construct: host or cells: CHO cells
T2 sequence (Q9Y5N1 whole entry): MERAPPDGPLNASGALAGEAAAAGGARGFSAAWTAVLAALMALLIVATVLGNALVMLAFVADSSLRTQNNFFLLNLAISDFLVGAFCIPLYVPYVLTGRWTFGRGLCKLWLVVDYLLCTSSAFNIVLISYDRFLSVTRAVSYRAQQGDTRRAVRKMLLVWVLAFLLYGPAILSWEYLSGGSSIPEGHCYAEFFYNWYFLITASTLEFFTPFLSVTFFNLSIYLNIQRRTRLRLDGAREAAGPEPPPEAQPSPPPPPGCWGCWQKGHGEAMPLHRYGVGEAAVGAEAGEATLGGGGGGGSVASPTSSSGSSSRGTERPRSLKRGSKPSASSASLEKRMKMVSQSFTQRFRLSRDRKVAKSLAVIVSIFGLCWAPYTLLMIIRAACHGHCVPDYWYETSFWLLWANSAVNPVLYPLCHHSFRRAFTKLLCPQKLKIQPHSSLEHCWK
Method: as §1, §2

H4 histamine GPCR = biological target: T3, H4 histamine GPCR (Homo sapiens, UniProt Q9H3N8); test: Radioligand binding assay, H4 receptor (transfected HEK-293 cells); settings: antagonist 1 μM
T3 construct: host or cells: HEK-293 cells
T3 sequence (Q9H3N8 whole entry): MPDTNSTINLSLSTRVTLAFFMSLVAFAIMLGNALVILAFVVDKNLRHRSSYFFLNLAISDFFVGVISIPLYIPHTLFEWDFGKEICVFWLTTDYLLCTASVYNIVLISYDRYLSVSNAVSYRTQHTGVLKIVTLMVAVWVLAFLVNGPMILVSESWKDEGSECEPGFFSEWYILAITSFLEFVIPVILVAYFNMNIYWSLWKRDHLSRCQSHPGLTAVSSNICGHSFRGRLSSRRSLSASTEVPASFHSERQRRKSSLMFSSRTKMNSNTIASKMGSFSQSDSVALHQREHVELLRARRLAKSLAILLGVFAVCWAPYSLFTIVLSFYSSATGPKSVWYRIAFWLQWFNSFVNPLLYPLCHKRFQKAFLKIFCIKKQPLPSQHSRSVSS
Method: as §1, §2

M2 acetylcholine GPCR = biological target: T4, M2 acetylcholine GPCR (Homo sapiens, UniProt P08172); test: Radioligand binding assay, M2 receptor (transfected CHO cells); settings: antagonist 1 μM
T4 construct: host or cells: CHO cells
T4 sequence (P08172 whole entry): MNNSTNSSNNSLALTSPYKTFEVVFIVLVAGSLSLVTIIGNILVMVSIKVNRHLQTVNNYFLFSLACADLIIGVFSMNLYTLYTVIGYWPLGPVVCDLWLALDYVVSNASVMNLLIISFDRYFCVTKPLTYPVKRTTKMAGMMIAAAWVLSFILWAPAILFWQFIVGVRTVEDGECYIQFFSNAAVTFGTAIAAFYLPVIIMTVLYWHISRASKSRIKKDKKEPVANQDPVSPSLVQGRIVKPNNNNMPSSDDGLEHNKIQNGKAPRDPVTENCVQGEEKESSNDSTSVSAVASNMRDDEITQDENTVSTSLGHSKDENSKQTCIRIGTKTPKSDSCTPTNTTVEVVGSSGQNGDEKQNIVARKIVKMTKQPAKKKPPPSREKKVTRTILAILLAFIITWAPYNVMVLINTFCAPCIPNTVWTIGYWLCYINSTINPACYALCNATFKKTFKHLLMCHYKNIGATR
Method: as §1, §2

M5 acetylcholine GPCR = biological target: T5, M5 acetylcholine GPCR (Homo sapiens, UniProt P08912); test: Radioligand binding assay, M5 receptor (transfected CHO cells); settings: antagonist 1 μM
T5 construct: host or cells: CHO cells
T5 sequence (P08912 whole entry): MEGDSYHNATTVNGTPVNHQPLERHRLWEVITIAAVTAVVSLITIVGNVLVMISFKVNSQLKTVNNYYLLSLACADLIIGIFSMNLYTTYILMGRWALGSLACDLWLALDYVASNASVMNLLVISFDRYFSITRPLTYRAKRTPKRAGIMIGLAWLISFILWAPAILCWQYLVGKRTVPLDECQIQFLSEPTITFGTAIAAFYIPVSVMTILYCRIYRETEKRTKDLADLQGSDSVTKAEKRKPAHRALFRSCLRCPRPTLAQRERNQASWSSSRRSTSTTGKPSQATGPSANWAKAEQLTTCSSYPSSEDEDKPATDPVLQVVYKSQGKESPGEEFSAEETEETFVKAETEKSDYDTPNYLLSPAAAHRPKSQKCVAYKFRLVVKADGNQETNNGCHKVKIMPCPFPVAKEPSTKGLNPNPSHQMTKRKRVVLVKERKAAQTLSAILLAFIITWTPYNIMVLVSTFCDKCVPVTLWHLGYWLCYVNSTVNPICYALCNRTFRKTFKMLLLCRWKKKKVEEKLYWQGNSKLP
Method: as §1, §2

nAChR alpha4/beta2 = biological target: T6, nAChR alpha4/beta2 (Homo sapiens, UniProt P17787+P43681); test: Radioligand binding assay, neuronal α4β2 nicotinic receptor (transfected SH-SY5Y cells); settings: antagonist 1 μM
T6 construct: host or cells: SH-SY5Y cells
T6 sequence (P43681 29-627 limits assumed): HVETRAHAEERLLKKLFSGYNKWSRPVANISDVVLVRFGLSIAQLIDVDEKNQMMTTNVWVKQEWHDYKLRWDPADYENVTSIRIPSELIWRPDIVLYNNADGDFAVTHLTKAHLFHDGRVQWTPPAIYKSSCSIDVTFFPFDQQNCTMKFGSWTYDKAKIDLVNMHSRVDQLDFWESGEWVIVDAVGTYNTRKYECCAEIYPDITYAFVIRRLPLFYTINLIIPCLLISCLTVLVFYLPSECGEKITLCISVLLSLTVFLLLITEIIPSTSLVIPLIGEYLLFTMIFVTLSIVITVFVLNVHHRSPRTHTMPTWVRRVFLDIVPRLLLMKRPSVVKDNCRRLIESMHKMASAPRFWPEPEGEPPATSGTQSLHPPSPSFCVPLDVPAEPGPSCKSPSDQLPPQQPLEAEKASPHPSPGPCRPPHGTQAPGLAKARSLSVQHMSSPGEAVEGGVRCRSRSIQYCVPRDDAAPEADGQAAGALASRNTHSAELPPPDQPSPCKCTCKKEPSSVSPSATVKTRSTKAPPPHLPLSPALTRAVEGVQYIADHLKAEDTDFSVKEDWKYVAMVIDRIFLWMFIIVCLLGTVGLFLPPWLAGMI
T6 sequence (P17787 26-502): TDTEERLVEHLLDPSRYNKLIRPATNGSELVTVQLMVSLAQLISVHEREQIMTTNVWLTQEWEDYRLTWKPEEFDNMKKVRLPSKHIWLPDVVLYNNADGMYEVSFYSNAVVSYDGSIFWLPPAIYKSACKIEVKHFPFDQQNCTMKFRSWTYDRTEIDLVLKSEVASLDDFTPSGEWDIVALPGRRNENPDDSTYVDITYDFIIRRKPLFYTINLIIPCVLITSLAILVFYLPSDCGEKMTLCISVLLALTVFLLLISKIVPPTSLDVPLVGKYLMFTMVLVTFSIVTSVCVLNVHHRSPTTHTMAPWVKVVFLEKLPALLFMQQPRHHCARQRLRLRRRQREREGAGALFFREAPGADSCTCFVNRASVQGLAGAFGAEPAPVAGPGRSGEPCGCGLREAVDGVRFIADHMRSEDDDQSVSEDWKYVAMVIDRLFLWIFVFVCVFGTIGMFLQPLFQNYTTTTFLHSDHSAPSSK
Method: as §1, §2

nAChR alpha7 = biological target: T7, nAChR alpha7 (Homo sapiens, UniProt P36544); test: Radioligand binding assay, neuronal α7 nicotinic receptor (transfected SH-SY5Y cells); settings: antagonist 1 μM
T7 construct: host or cells: SH-SY5Y cells
T7 sequence (P36544 23-502): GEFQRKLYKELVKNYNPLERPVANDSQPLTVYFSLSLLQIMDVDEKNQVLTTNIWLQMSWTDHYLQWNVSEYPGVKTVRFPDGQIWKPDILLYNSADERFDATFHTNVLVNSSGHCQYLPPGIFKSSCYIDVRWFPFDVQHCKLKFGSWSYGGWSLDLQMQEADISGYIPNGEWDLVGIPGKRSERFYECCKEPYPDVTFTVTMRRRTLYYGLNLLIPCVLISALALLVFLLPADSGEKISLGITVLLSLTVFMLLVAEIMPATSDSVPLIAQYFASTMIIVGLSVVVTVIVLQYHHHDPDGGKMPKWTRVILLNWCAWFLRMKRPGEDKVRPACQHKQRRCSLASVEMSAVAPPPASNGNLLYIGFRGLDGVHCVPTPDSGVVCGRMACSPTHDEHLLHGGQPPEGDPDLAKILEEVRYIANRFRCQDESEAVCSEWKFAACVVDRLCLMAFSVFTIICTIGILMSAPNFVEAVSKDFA
Method: as §1, §2

[1] = In vitro microsomal stability assay, mouse; assay type: in vitro ADME; settings: pH 7.4; mouse liver microsomes, 1 μM compound, 37°C; read-out: Half-life (min) Mean (N = 2)
Method: The stability of IEM-1460 in the presence of guinea pig liver microsomes (BioIVT, PN: X008070) or IEM-1925 in the presence of human (BioIVT, PN: M00101), mouse, or guinea pig liver microsomes was evaluated (Paraza Pharma, Inc., Montreal, Quebec, Canada). Both IEM-1925 and IEM-1460 were incubated with microsomes at 37°C for a total of 45 min. Working solutions were prepared in 100 mM potassium phosphate buffer and the final reaction was performed at pH 7.4 in 100 mM potassium phosphate buffer containing 0.5 mg/mL liver microsomal protein. Phase I metabolism was assessed by adding NADPH to a final concentration of 1 mM and collecting samples at time points 0, 5, 15, 30, and 45 min. All collected samples were quenched 1:1 with ice-cold stop solution (1 μM labetalol and 1 μM glyburide in acetonitrile) and centrifuged to remove precipitated protein. […] Samples were analyzed by LC-MS/MS using a Thermo Vanquish UPLC and a Thermo Quantis triple quadrupole mass spectrometer. […] Reference compounds were also assessed to ensure accuracy and precision of experimental protocol: imipramine and verapamil for human liver microsomes, diphenhydramine and verapamil for mouse liver microsomes, and warfarin and verapamil for guinea pig liver microsomes. […] Half-life was determined from a plot of the natural logarithm of the peak area ratio (remaining compound peak area/internal standard peak area) against time. […]

[2] = system: pyramidal cells (expressing mainly GluA2-containing CI-AMPARs); design: method as in Tikhonov et al., 2000; settings: rat hippocampus ref Tikhonov et al., 2000; cited from earlier work

T1 sequence (P35367 whole entry): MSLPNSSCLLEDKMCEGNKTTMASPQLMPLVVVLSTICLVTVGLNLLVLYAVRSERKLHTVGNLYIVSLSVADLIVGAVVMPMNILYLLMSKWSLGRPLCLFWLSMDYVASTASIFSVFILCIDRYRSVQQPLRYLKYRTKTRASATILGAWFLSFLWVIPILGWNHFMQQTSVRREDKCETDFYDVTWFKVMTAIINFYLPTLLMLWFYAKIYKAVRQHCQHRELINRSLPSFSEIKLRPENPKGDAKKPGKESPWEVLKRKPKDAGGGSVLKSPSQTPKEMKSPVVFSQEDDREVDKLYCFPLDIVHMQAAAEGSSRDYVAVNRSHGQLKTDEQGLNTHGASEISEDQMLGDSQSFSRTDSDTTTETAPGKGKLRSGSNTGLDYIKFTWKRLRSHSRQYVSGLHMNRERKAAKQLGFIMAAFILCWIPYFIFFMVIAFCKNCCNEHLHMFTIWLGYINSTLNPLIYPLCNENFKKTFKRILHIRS

Compound	Mean% inhibition (N = 2) of radioligand binding (H1 histamine GPCR) [%]	Mean% inhibition (N = 2) of radioligand binding (H3 histamine GPCR) [%]	Mean% inhibition (N = 2) of radioligand binding (H4 histamine GPCR) [%]	Mean% inhibition (N = 2) of radioligand binding (M2 acetylcholine GPCR) [%]	Mean% inhibition (N = 2) of radioligand binding (M5 acetylcholine GPCR) [%]	Mean% inhibition (N = 2) of radioligand binding (nAChR alpha4/beta2) [%]	Mean% inhibition (N = 2) of radioligand binding (nAChR alpha7) [%]	half-life at 1 μM [1] [min]	IC50 [2] [µM]
C[N+](C)(C)CCCCCNCC12CC3CC(CC(C3)C1)C2 [IEM-1460]	<1	<1	<1	<1	5.2	<1	<1	> 300	> 500
NCCCCCNC1(c2ccccc2)CCCCC1 [IEM-1925]	<1	<5	<5	<1	<5	<1	<2	> 300	> 200
